Consider 3 compounds from US10071963B2, “Polymorphic form of N-[2-(6-fluoro-1H-indol-3-yl)ethyl]-3-(2,2,3,3-tetrafluoropropoxy)benzylamine hydrochloride for the treatment of Alzheimer's disease” (H. Lundbeck A/S, priority 2014, dated 2018).

Holding throughout (assay type): physicochemical
Data set [1] in a line: Thermodynamic solubility in organic solvents. Particulars: room temperature (about 23° C.); for Solubility: HPLC at 217 nm, hydrochloride. Here is the method: Thermodynamic solubility of polymorphic form I and III of N-[2-(6-fluoro-1H-indol-3-yl)ethyl]-3-(2,2,3,3-tetrafluoropropoxy)benzylamine hydrochloride was measured by shaking an excess amount of the two polymorphic forms in the organic solvent in a sealed container at room temperature (about 23° C.). After equilibrium was attained, a sample was withdrawn, the solid filtered or centrifuged off and the clear filtrate/supernatant was assayed by HPLC at 217 nm. The precipitate was evaluated by XRPD to determine the polymorphic form.

A short description of data set [2]: Slurry experiments of polymorphic form I in solvents, solid evaluated by XRPD. Conditions: no solvate formed, hydrochloride. Here is the method:
6 mL of a solvent or solvent mixture is added into a glass vial together with polymorphic form I of N-[2-(6-fluoro-1H-indol-3-yl)ethyl]-3-(2,2,3,3-tetrafluoropropoxy)benzylamine hydrochloride. The added amount of compound is determined by the expected solubility in the relevant solvent or solvent system. If a clear solution is obtained anti-solvent and/or additional polymorphic form I of N-[2-(6-fluoro-1H-indol-3-yl)ethyl]-3-(2,2,3,3-tetrafluoropropoxy)benzylamine hydrochlorideis added until it is a suspension at the relevant temperature. The suspension is slurred for a prolonged period of time. The result of the slurry experiment is evaluated by filtering off the solid material and measuring XRPD on the isolated solid.
6 mL of a toluene/acetonitrile (4:1) solvent mixture was added into a glass vial and 100 mg polymorphic form I of N-[2-(6-fluoro-1H-indol-3-yl)ethyl]-3-(2,2,3,3-tetrafluoropropoxy)benzylamine hydrochloride was added. The resulting suspension was heated to 50° C. A clear solution was obtained and another 50 mg was added. The suspension was stirred for one month at 50° C. Polymorphic form III of N-[2-(6-fluoro-1H-indol-3-yl)ethyl]-3-(2,2,3,3-tetrafluoropropoxy)benzylamine hydrochloride was obtained as evaluated by XRPD.
6 mL of an acetone/heptane (1:4) solvent mixture was added into a glass vial and 100 mg polymorphic form I of N-[2-(6-fluoro-1H-indol-3-yl)ethyl]-3-(2,2,3,3-tetrafluoropropoxy)benzylamine hydrochloride was added. The resulting suspension was heated to 50° C. The suspension was stirred for one week at 50° C. Polymorphic form III of N-[2-(6-fluoro-1H-indol-3-yl)ethyl]-3-(2,2,3,3-tetrafluoropropoxy)benzylamine hydrochloride was obtained as evaluated by XRPD.
6 mL of a methanol/toluene (1:9) solvent mixture was added into a glass vial and 100 mg polymorphic form I of N-[2-(6-fluoro-1H-indol-3-yl)ethyl]-3-(2,2,3,3-tetrafluoropropoxy)benzylamine hydrochloride was added. After stirring another 1 mL of the anti-solvent (toluene) was added +50 mg polymorphic form I of N-[2-(6-fluoro-1H-indol-3-yl)ethyl]-3-(2,2,3,3-tetrafluoropropoxy)benzylamine hydrochloride. […] To the 4 mL solutions another 1 mL of toluene was added and additional 50 mg polymorphic form I of N-[2-(6-fluoro-1H-indol-3-yl)ethyl]-3-(2,2,3,3-tetrafluoropropoxy)benzylamine hydrochloride. The resulting suspension was heated to 50° C. A clear solution was obtained and substance was added until a suspension was obtained. The suspension was stirred for one week at 50° C. Polymorphic form III of N-[2-(6-fluoro-1H-indol-3-yl)ethyl]-3-(2,2,3,3-tetrafluoropropoxy)benzylamine hydrochloride was obtained as evaluated by XRPD.
6 mL of isopropyl acetate was added into a glass vial and 50 mg polymorphic form I of N-[2-(6-fluoro-1H-indol-3-yl)ethyl]-3-(2,2,3,3-tetrafluoropropoxy)benzylamine hydrochloride was added. The resulting suspension was heated to 50° C. A clear solution was obtained and another 50 mg polymorphic form I of N-[2-(6-fluoro-1H-indol-3-yl)ethyl]-3-(2,2,3,3-tetrafluoropropoxy)benzylamine hydrochloride was added. Substance was added until a suspension was obtained at 50° C. The suspension was stirred for one week at 50° C. Polymorphic form III of N-[2-(6-fluoro-1H-indol-3-yl)ethyl]-3-(2,2,3,3-tetrafluoropropoxy)benzylamine hydrochloride was obtained as evaluated by XRPD.
6 mL of ethyl acetate was added into a glass vial and 150 mg polymorphic form I of N-[2-(6-fluoro-1H-indol-3-yl)ethyl]-3-(2,2,3,3-tetrafluoropropoxy)benzylamine hydrochloride was added. The resulting suspension was heated to 50° C. on a thermal stirrer plate. A clear solution was obtained and 50 mg polymorphic form I of N-[2-(6-fluoro-1H-indol-3-yl)ethyl]-3-(2,2,3,3-tetrafluoropropoxy)benzylamine hydrochloride was added. Polymorphic form I of N-[2-(6-fluoro-1H-indol-3-yl)ethyl]-3-(2,2,3,3-tetrafluoropropoxy)benzylamine hydrochloride was added until a suspension was obtained. The suspension was stirred for one month at 50° C. […]

Data set [3] can be described thus: Relative stability of polymorphic form I, II and III (competitive slurry in saturated solution). Conditions: II and III in equal amounts, hydrochloride. Here is the method:
A saturated solution was prepared by heating 1.6 mL isopropyl acetate and 0.4 mL heptane to 70° C. and adding 50 mg of polymorphic form I of N-[2-(6-fluoro-1H-indol-3-yl)ethyl]-3-(2,2,3,3-tetrafluoropropoxy)benzylamine hydrochloride.
The supernatant was divided into two ampoules and kept at 60° C. and 70° C.
5 mg of polymorphic form I, II and III of N-[2-(6-fluoro-1H-indol-3-yl)ethyl]-3-(2,2,3,3-tetrafluoropropoxy)benzylamine hydrochloride was added to the 60° C. solution and left stirring at 60° C. for one and four days, respectively.
2.5 mg of polymorphic form I, II and III of N-[2-(6-fluoro-1H-indol-3-yl)ethyl]-3-(2,2,3,3-tetrafluoropropoxy)benzylamine hydrochloride was added to the 70° C. solution and left without stirring at 70° C. for three days.

Setting [4] is: 70° C., without stirring, three days.
Setting [5] is: isopropyl acetate, 60° C., one and four days.

For the compound `Cl.Fc1ccc2c(CCNCc3cccc(OCC(F)(F)C(F)F)c3)c[nH]c2c1` [polymorphic form III, N-[2-(6-fluoro-1H-indol-3-yl)ethyl]-3-(2,2,3,3-tetrafluoropropoxy)benzylamine hydrochloride], the Solubility in data set [1] (2-butanol) is listed as 9.3 mg base/mL; in data set [1] (Isopropanol) it was 24.5 mg base/mL; in data set [1] (Isopropyl acetate), 3.0 mg base/mL. In addition, the “Relative solubility and thermodynamic stability” value in data set [1] (organic solvents, compared with polymorphic form I) is “slightly less soluble and therefore thermodynamically stable”. In addition, the “Transformation on slurrying / relative solubility and thermodynamic stability” value in data set [2] (slurried at 5° C.) was “less soluble and therefore thermodynamically stable”; in data set [2] (slurried at 25° C.), “less soluble and therefore thermodynamically stable”; in data set [2] (slurried at 50° C.), “less soluble and therefore thermodynamically stable”. Further, the “Relative thermodynamic stability of the polymorphic forms” value (shortened to “Relative thermodynamic stability”) in data set [3] (setting [4]) is on record as “vanished”; in data set [3] (setting [5]) it was “transforming into polymorphic form II”.
With `Cl.Fc1ccc2c(CCNCc3cccc(OCC(F)(F)C(F)F)c3)c[nH]c2c1` [polymorphic form I, N-[2-(6-fluoro-1H-indol-3-yl)ethyl]-3-(2,2,3,3-tetrafluoropropoxy)benzylamine hydrochloride], the Solubility in data set [1] (2-butanol) is listed as 10.5 mg base/mL; in data set [1] (Isopropanol), 25.2 mg base/mL; in data set [1] (Isopropyl acetate) it was 3.4 mg base/mL. Moreover, the “Transformation on slurrying / relative solubility and thermodynamic stability” value in data set [2] (slurried at 5° C.), in data set [2] (slurried at 25° C.) and in data set [2] (slurried at 50° C.) was “transformed into polymorphic form III” each time. Also, the “Relative thermodynamic stability” value in data set [3] (setting [5]) is listed as “less stable than polymorphic form III”.
Consider `Cl.Fc1ccc2c(CCNCc3cccc(OCC(F)(F)C(F)F)c3)c[nH]c2c1` [polymorphic form II, N-[2-(6-fluoro-1H-indol-3-yl)ethyl]-3-(2,2,3,3-tetrafluoropropoxy)benzylamine hydrochloride], for which the “Relative thermodynamic stability” value in data set [3] (setting [4]) and in data set [3] (setting [5]) was “thermodynamically stable” in each case.
